Results as given in PMC10931833, “Simultaneous Purification of Human Interferon Alpha-2b and Serum Albumin Using Bioprivileged Fluorinated Ionic Liquid-Based Aqueous Biphasic Systems” (International Journal of Molecular Sciences, 2024).
Where two headings read alike, the source gives them in different places. Values belong to the molecule of their own block, whether it stands above or below them.

Columns and labels:
FITC-BSA = target: T1, FITC-BSA (Bos taurus, UniProt P02769); test: MST binding to FITC-BSA; parameters: species or system bovine; details: 0.41 μM BSA
T1 construct: purchased Millipore Sigma-Aldrich
T1 sequence (P02769 25-607): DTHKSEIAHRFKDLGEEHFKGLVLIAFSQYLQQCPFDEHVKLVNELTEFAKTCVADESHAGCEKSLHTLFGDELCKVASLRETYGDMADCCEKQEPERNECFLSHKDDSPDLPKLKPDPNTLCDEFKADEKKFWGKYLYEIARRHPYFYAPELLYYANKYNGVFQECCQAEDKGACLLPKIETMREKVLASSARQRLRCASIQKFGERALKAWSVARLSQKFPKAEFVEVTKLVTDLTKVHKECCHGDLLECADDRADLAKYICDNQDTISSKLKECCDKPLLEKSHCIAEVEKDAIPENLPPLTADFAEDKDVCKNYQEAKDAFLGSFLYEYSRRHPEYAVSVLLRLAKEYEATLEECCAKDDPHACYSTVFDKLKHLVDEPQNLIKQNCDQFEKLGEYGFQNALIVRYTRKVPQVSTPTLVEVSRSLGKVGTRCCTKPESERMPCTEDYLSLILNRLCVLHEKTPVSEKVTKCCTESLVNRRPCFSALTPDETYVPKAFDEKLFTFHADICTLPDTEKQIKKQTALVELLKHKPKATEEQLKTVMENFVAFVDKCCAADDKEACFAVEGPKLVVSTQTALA
Experimental: Herein, a commercial FITC labeling kit (Section 3) was used to fluorescently tag both IFN- α 2b and BSA. Typically, in the labeling process, one amine per protein is labeled, statistically distributing the position of the dye. […] The MST assay was performed as detailed in Section 3. The solutions were prepared with a concentration of IFN- α 2b and BSA fixed at 0.41 μ M in water. For IFN- α 2b a concentration of 2.7 μ M was also prepared to compare it with previous results on MST-binding between FILs and IFN- α 2b fluorescently labeled with a different tag. In each run of MST, a maximum concentration of a ligand is selected and consecutively diluted in sixteen capillaries. […] The experimental conditions of the MST assay only allow the study of the aggregation phenomenon individually for the first CAC.
Microscale thermophoresis (MST) measurements of the dye-labeled protein were used to conduct binding investigations. […] MST tests were conducted in a monolith NT.115 (blue/red) in accordance with the NanoTemper Technologies methodology. Medium MST power and 20% LED power (nano-blue) were set as the instrument’s default settings. For every MST measurement, a PBS buffer was used. The concentration of FITC-BSA was fixed at 0.4 μ M and FITC-IFN- α 2b was tested under two different concentrations (of 0.4 and 2.7 μ M). The ligand was used to create a set of 16 1:1 dilutions, with the starting ligand concentrations ranging from 10 to 400 mM. The typical parameters for MST traces were used for recording: […], 30 s MST power on, and 5 s MST power off. The data from three independently conducted pipetted experiments were examined using NanoTemper Technologies’ MO.Affinity Analysis software, version 2.3.

BSA [1] = target: T2, BSA (Bos taurus, UniProt P02769); test: Far-UV CD secondary structure of BSA (CONTIN-LL deconvolution); format: physicochemical, bovine; parameters: Regular Alpha Helix / Distorted Alpha Helix / Regular Beta Sheet / Distorted Beta Sheet / Turns / Unordered: unit not given here; details: for Distorted Alpha Helix / Distorted Beta Sheet / Regular Alpha Helix / Regular Beta Sheet / Turns / Unordered: 25 °C
T2 construct: purchased Millipore Sigma-Aldrich
T2 sequence (P02769 25-607): as above
Source text: Circular dichroism (CD) is widely used to study the secondary structures of proteins, peptides and nucleic acids, because it requires a low concentration sample, is a nondestructive method, allows studying a wide range of variables (temperature, pH, etc.), and provides information on the effect of added ligands on protein folding and interactions. Far-UV (190–260 nm) CD spectroscopy was used to assess the IFN- α 2b and BSA secondary structure since the spectra are characteristic of different structural elements.
Circular dichroism (CD) spectra were collected in a 10 mm quartz cuvette and a Chirascan spectropolarimeter (Applied Photophysics, UK) at room temperature. All CD spectra were recorded in the far-UV range of 190 to 260 nm at scan rates of 50 nm/min, with 4 accumulations, and a response time of 3 s; CD spectra were collected. For each CD experiment, two distinct duplicates were acquired and combined. BSA was fixed at 1 mg/mL, solvent concentrations ranging from 0.1 to 200 mM were used, and the spectra were translated to MRE after being expressed in terms of molar ellipticity. Spectral deconvolution was carried out with DichroWeb using the CONTIN-LL deconvolution algorithm with the SMP180 reference set.

BSA [2] = target: T2, BSA; test: CD thermal unfolding (Tm) of BSA; format: physicochemical, bovine
Source text: The thermal stability assessed by far-UV CD is solely determined through the thermal decay of the alpha-helical structure.

BSA [3] = target: T2, BSA; test: DSC thermal unfolding of BSA in water and aqueous solutions of ABS phase-forming components; format: physicochemical, bovine
Experimental: Differential scanning calorimetry (DSC) measurements were performed with Nano DSC equipment, as detailed in Section 3, and used to determine the melting temperature (T m ) and enthalpy ( Δ H) of protein unfolding. DSC analyzes changes in the structure and stability of proteins as thermal transitions at the nanoscale. Using DSC to measure heat capacity as a function of the temperature of a well-studied protein such as BSA provides keen insights into folding and unfolding processes, as well as factors affecting stability. Due to the volume and concentration requirements of the DSC technique, and the constraints in available quantities of IFN- α 2b the DSC experiments on the ABS phase-forming components’ effect on the structural properties of proteins were attained only for BSA.
The T m of BSA, which corresponds to the thermal unfolding transition midpoint, was measured in the absence and presence of the ABS phase-forming components at increasing concentrations (see Figure 1 and Table 2).

[4] = 1.0 mg/mL BSA, 0.1 mM component
[5] = 1.0 mg/mL BSA, 120 mM component
[6] = 1.0 mg/mL BSA, 200 mM component
[7] = 1.0 mg/ml BSA, 200 mM component aqueous solution
[8] = 1.2-1.6 mg/mL BSA in [N1112(OH)][H2PO4]-rich phase of BP#8

Kd (FITC-BSA; max. conc. first capillary 12.5 mM (monomer)): no binding detected
Kd (FITC-BSA; max. conc. first capillary 400 mM (monomer)): no binding detected
Distorted Alpha Helix (BSA [1]; [4]): 0.205
Distorted Beta Sheet (BSA [1]; [4]): 0.026
Regular Alpha Helix (BSA [1]; [4]): 0.391
Regular Beta Sheet (BSA [1]; [4]): 0.000
Turns (BSA [1]; [4]): 0.136
Unordered (BSA [1]; [4]): 0.242
Distorted Alpha Helix (BSA [1]; 1.0 mg/mL BSA, 1 mM component): 0.216
Distorted Beta Sheet (BSA [1]; 1.0 mg/mL BSA, 1 mM component): 0.023
Regular Alpha Helix (BSA [1]; 1.0 mg/mL BSA, 1 mM component): 0.428
Regular Beta Sheet (BSA [1]; 1.0 mg/mL BSA, 1 mM component): 0.000
Turns (BSA [1]; 1.0 mg/mL BSA, 1 mM component): 0.135
Unordered (BSA [1]; 1.0 mg/mL BSA, 1 mM component): 0.198
Distorted Alpha Helix (BSA [1]; 1.0 mg/mL BSA, 5 mM component): 0.225
Distorted Beta Sheet (BSA [1]; 1.0 mg/mL BSA, 5 mM component): 0.022
Regular Alpha Helix (BSA [1]; 1.0 mg/mL BSA, 5 mM component): 0.427
Regular Beta Sheet (BSA [1]; 1.0 mg/mL BSA, 5 mM component): 0.000
Turns (BSA [1]; 1.0 mg/mL BSA, 5 mM component): 0.136
Unordered (BSA [1]; 1.0 mg/mL BSA, 5 mM component): 0.19
Distorted Alpha Helix (BSA [1]; 1.0 mg/mL BSA, 25 mM component): 0.196
Distorted Beta Sheet (BSA [1]; 1.0 mg/mL BSA, 25 mM component): 0.024
Regular Alpha Helix (BSA [1]; 1.0 mg/mL BSA, 25 mM component): 0.333
Regular Beta Sheet (BSA [1]; 1.0 mg/mL BSA, 25 mM component): 0.004
Turns (BSA [1]; 1.0 mg/mL BSA, 25 mM component): 0.131
Unordered (BSA [1]; 1.0 mg/mL BSA, 25 mM component): 0.312
Distorted Alpha Helix (BSA [1]; 1.0 mg/mL BSA, 55 mM component): 0.211
Distorted Beta Sheet (BSA [1]; 1.0 mg/mL BSA, 55 mM component): 0.026
Regular Alpha Helix (BSA [1]; 1.0 mg/mL BSA, 55 mM component): 0.412
Regular Beta Sheet (BSA [1]; 1.0 mg/mL BSA, 55 mM component): 0.000
Turns (BSA [1]; 1.0 mg/mL BSA, 55 mM component): 0.138
Unordered (BSA [1]; 1.0 mg/mL BSA, 55 mM component): 0.214
Distorted Alpha Helix (BSA [1]; 1.0 mg/mL BSA, 90 mM component): 0.211
Distorted Beta Sheet (BSA [1]; 1.0 mg/mL BSA, 90 mM component): 0.025
Regular Alpha Helix (BSA [1]; 1.0 mg/mL BSA, 90 mM component): 0.4
Regular Beta Sheet (BSA [1]; 1.0 mg/mL BSA, 90 mM component): 0.000
Turns (BSA [1]; 1.0 mg/mL BSA, 90 mM component): 0.137
Unordered (BSA [1]; 1.0 mg/mL BSA, 90 mM component): 0.227
Distorted Alpha Helix (BSA [1]; [5]): 0.212
Distorted Beta Sheet (BSA [1]; [5]): 0.025
Regular Alpha Helix (BSA [1]; [5]): 0.415
Regular Beta Sheet (BSA [1]; [5]): 0.000
Turns (BSA [1]; [5]): 0.135
Unordered (BSA [1]; [5]): 0.213
Distorted Alpha Helix (BSA [1]; [6]): 0.216
Distorted Beta Sheet (BSA [1]; [6]): 0.024
Regular Alpha Helix (BSA [1]; [6]): 0.436
Regular Beta Sheet (BSA [1]; [6]): 0.000
Turns (BSA [1]; [6]): 0.136
Unordered (BSA [1]; [6]): 0.189
Tm, Ellipticity 192 nm (BSA [2]; [7]): 70.098 °C
Tm, Ellipticity 208 nm (BSA [2]; [7]): 73.063 °C
Tm, Ellipticity 222 nm (BSA [2]; [7]): 71.977 °C
Tm (BSA [3]; [4]): 79.97 °C
ΔG (BSA [3]; [4]): 19.6 kcal/mol
ΔHcal (BSA [3]; [4]): 125 kcal/mol
ΔHcal/ΔHvH (BSA [3]; [4]): 0.968
ΔHvH (BSA [3]; [4]): 129.2 kcal/mol
ΔS (BSA [3]; [4]): 1.480 KJ/(mol.K)
Tm (BSA [3]; 1.0 mg/mL BSA, 1 mM component): 81.63 °C
ΔG (BSA [3]; 1.0 mg/mL BSA, 1 mM component): 26.77 kcal/mol
ΔHcal (BSA [3]; 1.0 mg/mL BSA, 1 mM component): 167.4 kcal/mol
ΔHcal/ΔHvH (BSA [3]; 1.0 mg/mL BSA, 1 mM component): 0.980
ΔHvH (BSA [3]; 1.0 mg/mL BSA, 1 mM component): 170.8 kcal/mol
ΔS (BSA [3]; 1.0 mg/mL BSA, 1 mM component): 1.974 KJ/(mol.K)
Tm (BSA [3]; 1.0 mg/mL BSA, 5 mM component): 80.68 °C
ΔG (BSA [3]; 1.0 mg/mL BSA, 5 mM component): 20.87 kcal/mol
ΔHcal (BSA [3]; 1.0 mg/mL BSA, 5 mM component): 131.5 kcal/mol
ΔHcal/ΔHvH (BSA [3]; 1.0 mg/mL BSA, 5 mM component): 1.018
ΔHvH (BSA [3]; 1.0 mg/mL BSA, 5 mM component): 129.1 kcal/mol
ΔS (BSA [3]; 1.0 mg/mL BSA, 5 mM component): 1.552 KJ/(mol.K)
Tm (BSA [3]; 1.0 mg/mL BSA, 10 mM component): 80.77 °C
ΔG (BSA [3]; 1.0 mg/mL BSA, 10 mM component): 25.17 kcal/mol
ΔHcal (BSA [3]; 1.0 mg/mL BSA, 10 mM component): 159 kcal/mol
ΔHcal/ΔHvH (BSA [3]; 1.0 mg/mL BSA, 10 mM component): 1.046
ΔHvH (BSA [3]; 1.0 mg/mL BSA, 10 mM component): 151.9 kcal/mol
ΔS (BSA [3]; 1.0 mg/mL BSA, 10 mM component): 1.878 KJ/(mol.K)
effect on BSA Tm (DSC) (BSA [3]; tested concentration range vs water): maintained
Molecule: OC[C@H]1O[C@@](CO)(O[C@H]2O[C@H](CO)[C@@H](O)[C@H](O)[C@H]2O)[C@@H](O)[C@@H]1O [Sucrose, sucrose]

Molecule: O=S(=O)(O)C(F)(F)C(F)(F)C(F)(F)C(F)(F)F [[N1112(OH)][C4F9SO3], (2-hydroxyethyl)trimethylammonium perfluorobutane sulfonate]
Kd (FITC-BSA; max. conc. first capillary in 1st CAC range, read-out: Kd): 860 ± 190 µM
Kd (FITC-BSA; max. conc. first capillary in 2nd CAC range, read-out: Kd): 1490 ± 300 µM

Molecule: Bovine serum albumin [BSA]
Distorted Alpha Helix (BSA [1]; 1.0 mg/mL BSA in water): 0.206
Distorted Beta Sheet (BSA [1]; 1.0 mg/mL BSA in water): 0.025
Regular Alpha Helix (BSA [1]; 1.0 mg/mL BSA in water): 0.400
Regular Beta Sheet (BSA [1]; 1.0 mg/mL BSA in water): 0.000
Turns (BSA [1]; 1.0 mg/mL BSA in water): 0.136
Unordered (BSA [1]; 1.0 mg/mL BSA in water): 0.233
predicted α-helical content (BSA [1]; BSA in water, CD deconvolution): 0.61
Tm, Ellipticity 192 nm (BSA [2]; 1.0 mg/mL BSA in water): 74.028 °C
Tm, Ellipticity 208 nm (BSA [2]; 1.0 mg/mL BSA in water): 74.616 °C
Tm, Ellipticity 222 nm (BSA [2]; 1.0 mg/mL BSA in water): 76.277 °C
Tm, Ellipticity 208 nm (BSA [2]; [8]): 76.122 °C
Tm, Ellipticity 222 nm (BSA [2]; [8]): 80.396 °C
ΔG (BSA [3]; 1.0 mg/mL BSA in water): 16.87 kcal/mol
ΔHcal (BSA [3]; 1.0 mg/mL BSA in water): 113.9 kcal/mol
ΔHvH (BSA [3]; 1.0 mg/mL BSA in water): 112.4 kcal/mol
ΔS (BSA [3]; 1.0 mg/mL BSA in water): 1.361 KJ/(mol.K)
